Data set [1] concerns T lymphocyte. As to the kind of experiment: Lymphocyte proliferation test, T lymphocyte proliferation response induced by ConA ([3H]-thymidine). The conditions noted are these: mouse spleen cells, ConA, 48 hours; read-out: Inhibiting activity of T lymphocyte proliferation response induced by ConA IC50. In kind it is cell-based, mouse. The protocol:
B. Lymphocyte Proliferation Test […] […] 3. After incubated in 5% CO2 incubator at 37° C. for 48 hours, 0.5 μCi [^3H]-thymidine (25 μL/well) was added into each well 7-8 hours before the termination of the incubation. 4.

In data set [2] the test system is BALB/c mouse spleen cells. Briefly: Lymphocytotoxicity test (MTT). It counts as cell-based. The conditions noted are these: mouse spleen cells, 48 hours, read-out: Lymphocytotoxicity CC50. The protocol: A. Lymphocytotoxicity Test
1. BALB/c mice were killed by cervical dislocation, and their spleens were removed aseptically. A single spleen cell suspension was prepared and cell debris and clumps were removed.
2. 80 μL cell suspension, 40 μL testing sample, 40 μL medium containing 10% FBS were added into 96 well plate; for the control group, 80 μL medium was added the total volume was 160 μL, and blank control group was set.
3. After incubated in 5% CO2 incubator at 37° C. for 48 hours, 16 μL MTT (5 mg/mL) reagent was added into each well 6-7 hours before the termination of the incubation.

Data set [3] relates to B lymphocyte. As to the kind of experiment: Lymphocyte proliferation test, B lymphocyte proliferation response induced by LPS ([3H]-thymidine). The settings on record: mouse spleen cells, LPS, 48 hours; read-out: Inhibiting activity of B lymphocyte proliferation response induced by LPS IC50. It counts as cell-based, mouse. How it is done: 3. After incubated in 5% CO2 incubator at 37° C. for 48 hours, 0.5 μCi [^3H]-thymidine (25 μL/well) was added into each well 7-8 hours before the termination of the incubation. 4.

The CC50 is the concentration at which the toxic effect on the cells reaches its halfway point. With `CCOC(=O)CNC(=O)c1ccc(OC2OC3OC4(C)CCC5C(C)CCC(C2C)C35OO4)cc1` (stereo not drawn) [compound 5, ethyl-[4-(12β-artemisininoxy)benzoyl] aminoacetate], the IC50 in data set [1] was found to be 2.53 µM; in data set [3], 0.16 µM. For the same compound, in data set [2], the cytotoxic concentration (CC50) was found to be 39 µM.
The corresponding values for `COC(=O)Cc1ccc(OC2OC3OC4(C)CCC5C(C)CCC(C2C)C35OO4)cc1` (stereo not drawn) [compound 1, methyl 4-(12β-artemisininoxy)phenyl acetate] are 0.713 µM, 0.179 µM and 8 µM.
For `CCOC(=O)C(C)Oc1cccc(OC2OC3OC4(C)CCC5C(C)CCC(C2C)C35OO4)c1` (stereo not drawn) [compound 28, ethyl 2-[3-(12α-artemisininoxy)phenoxy] propionate], the IC50 in data set [1] was 3.59 µM; in data set [3], 0.56 µM. Besides, in data set [2], the CC50 came to 2.99 µM.
The corresponding values for `COc1ccccc1OC(=O)C(C)Oc1cccc(OC2OC3OC4(C)CCC5C(C)CCC(C2C)C35OO4)c1` (stereo not drawn) [compound 27, o-methoxy-phenyl 2-[3-(12β-Artemisininoxy)phenoxy] propionate] are 4.12 µM, 0.57 µM and 2.99 µM.
With `CC1CCC2C(C)C(Oc3ccc(CC(=O)O)cc3)OC3OC4(C)CCC1C32OO4` (stereo not drawn) [compound 2, 4-(12β-artemisininoxy)phenyl acetic acid], the results for the IC50 in data set [1] and in data set [3] were 11.8 µM and 10.2 µM, respectively. For the same compound, in data set [2], the CC50 came out at 100 µM.
Turning to `COC(=O)C(C)c1ccc(OC2OC3OC4(C)CCC5C(C)CCC(C2C)C35OO4)cc1` (stereo not drawn) [compound 21, methyl 2-[4-(12β-artemisininoxy)phenyl] propionate], the IC50 was determined as 0.064 µM in data set [1] and 0.16 µM in data set [3]. Further, the 50% cytotoxic concentration (CC50) in data set [2] was 7.8 µM.
The corresponding values for `COc1ccccc1OC(=O)C(C)Oc1ccc(OC2OC3OC4(C)CCC5C(C)CCC(C2C)C35OO4)cc1` (stereo not drawn) [compound 26, o-methoxy-phenyl 2-[4-(12β-artemisininoxy)phenoxy] propionate] are 2.33 µM, 0.27 µM and 39.1 µM.
With `C[C@H]1[C@H](OC(=O)CCC(=O)O)O[C@@H]2O[C@@]3(C)CC[C@H]4[C@H](C)CC[C@@H]1[C@@]24OO3` [artesunate, reference compound], the IC50 in data set [1] is 3.82 µM. Moreover, the CC50 in data set [2] turned out to be 86 µM.
In the case of `CCOC(=O)C(C)Oc1ccc(OC2OC3OC4(C)CCC5C(C)CCC(C2C)C35OO4)cc1` (stereo not drawn) [compound 24, ethyl 2-[4-(12β-artemisininoxy)phenoxy] propionate], the IC50 in data set [1] stood at 0.26 µM; in data set [3], 0.85 µM. For the same compound, the cytotoxic concentration (CC50) in data set [2] is 17.6 µM.
In the case of `COc1ccccc1OC(=O)C(C)c1ccc(OC2OC3OC4(C)CCC5C(C)CCC(C2C)C35OO4)cc1` (stereo not drawn) [compound 23, o-methoxy-phenyl 2-[4-(12β-artemisininoxy)phenyl] propionate], the figures for the IC50 in data set [1] and in data set [3] were 0.527 µM and 0.0947 µM, respectively. Also, the CC50 in data set [2] came out at 5.33 µM.
The corresponding values for `CC(Oc1cccc(OC2OC3OC4(C)CCC5C(C)CCC(C2C)C35OO4)c1)C(=O)O` (stereo not drawn) [compound 29, 2-[3-(12α-artemisininoxy)phenoxy] propanoic acid] are 8.6 µM, 0.74 µM and 35.1 µM.
The like results for `CC1CCC2C(C)C(Oc3ccc(OCC(=O)OCCN(C)C)cc3)OC3OC4(C)CCC1C32OO4` (stereo not drawn) [compound 4, dimethylaminoethyl-[4-(12β-artemisininoxy)phenoxy] acetate] were, in that order, 1.96 µM, 0.0496 µM and 2.08 µM.
The corresponding values for `CC(Oc1ccc(OC2OC3OC4(C)CCC5C(C)CCC(C2C)C35OO4)cc1)C(=O)O` (stereo not drawn) [compound 25, 2-[4-(12β-artemisininoxy)phenoxy] propanoic acid] are 7.27 µM, 0.86 µM and 24.3 µM.

(Values after patent publication US7910750B2, “Artemisinin (qinghaosu) derivatives, their preparation methods and their use, and pharmaceutical compositions containing the same” (Shanghai Institute of Materia Medica, Chinese Academy of …, priority 2005, dated 2011).)
